Literature values as cited in publication PMC5889410, “Design and Biological Evaluation of Antifouling Dihydrostilbene Oxime Hybrids” (Marine Biotechnology (New York, N.y.), 2018).
Converted amounts (≈) assume the structure as drawn.

System: Balanus improvisus cyprid larvae
Conditions: cited from earlier work

Structure (SMILES)	IC50 (cyprid settlement inhibition) (B. improvisus, ref Moodie et al. ([2017b])) [µg/mL]	activity against larvae settlement (B. improvisus larvae settlement, ref Ortlepp et al. [2007])
COc1cc(O)cc(CCc2cccc(O)c2)c1 [Compound 1, batatasin-III]	1.0 (≈ 4.09 µM)	
N[C@@H](Cc1ccc(O)cc1)C(=O)NCCc1ccc(O)cc1 [Compound 5, L-Tyrosinyltyramine]		inactive
